Test results published in US7939536B2, “Pyrimidinylisoxazole derivatives” (Aska Pharmaceutical Co., Ltd., priority 2004, dated 2011).

Test: Measurement of the compounds' metabolic rate (human liver S9)
Type: in vitro ADME
Conditions: human liver S9 0.5 mg protein/mL, NADPH generating system, 1 μmol/L test compound, 37° C. for 5 minutes, LC/MS/MS
Procedure: (2) Measurement of the Compounds' Metabolic Rate:
Each test compound was added to potassium phosphate buffer (50 mmol/L, pH7.4) containing NADPH generating system (comprising 3.3 mmol/L MgCl2, 3.3 mmol/L glucose 6-phosphate, 1.3 mmol/L β-NADP^+ and 0.4 unit/mL glucose 6-phosphate dehydrogenase) (in which occasion the final concentration was rendered 1 μmol/L) and incubated at 37° C. for 2 minutes. After the incubation, a suspension of human liver S9(the supernatant fraction obtained by centrifuging comminuted human liver cell fluid at 9000×g) in potassium phosphate buffer was added to the system, to the final concentration of 0.5 mg protein/mL. This reaction mixture was incubated at 37° C. for 5 minutes, and to which 4 volume times the reaction mixture of acetonitrile was added, mixed, cooled with ice and centrifuged (2000×g, 10 minutes). A part of the supernatant was taken and analyzed by LC/MS/MS, to determine the remaining rate of unchanged substance in the reaction mixture. The results are shown in the following Table A, concurrently with the measured results of TNF-α production inhibition action in (1) above.

Metabolic rate (remaining rate of unchanged substance: %) [%] | SMILES
43.6 | Cc1cccc(-c2noc(NC(=O)Cc3ccccc3Br)c2-c2ccncn2)c1 [Example 202, 5-[(2-Bromophenyl)acetylamino]-3-(3-methylphenyl)-4-(4-pyrimidinyl)isoxazole]
5.8 | O=C(Cc1ccccc1Cl)Nc1onc(-c2ccc(F)cc2)c1-c1ccncn1 [Example 5, 5-[(2-chlorophenyl)acetylamino]-3-(4-fluorophenyl)-4-(4-pyrimidinyl)isoxazole]
38.5 | Cc1cccc(CC(=O)Nc2onc(-c3cccc(C)c3)c2-c2ccncn2)c1 [Example 215, 3-(3-Methylphenyl)-5-[(3-methylphenyl)acetylamino]-4-(4-pyrimidinyl)isoxazole]
46.6 | Cc1cccc(CC(=O)Nc2onc(-c3ccc(F)cc3F)c2-c2ccncn2)c1 [Example 121, 3-(2,4-Difluorophenyl)-5-[(3-methylphenyl)acetylamino]-4-(4-pyrimidinyl)isoxazole]
59.9 | Cc1cccc(-c2noc(NC(=O)Cc3ccccc3C)c2-c2ccncn2)c1 [Example 214, 3-(3-Methylphenyl)-5-[(2-methylphenyl)acetylamino]-4-(4-pyrimidinyl)isoxazole]
20.4 | O=C(Cc1ccccc1Cl)Nc1onc(-c2ccc(F)cc2F)c1-c1ccncn1 [Example 105, 5-[(2-Chlorophenyl)acetylamino]-3-(2,4-difluorophenyl)-4-(4-pyrimidinyl)isoxazole]
21.2 | Cc1cccc(-c2noc(NC(=O)Cc3ccccc3Cl)c2-c2ccncn2)c1 [Example 201, 5-[(2-Chlorophenyl)acetylamino]-3-(3-methylphenyl)-4-(4-pyrimidinyl)isoxazole]
53.1 | O=C(Cc1ccccc1Cl)Nc1onc(-c2ccc(Cl)cc2)c1-c1ccncn1 [Example 61, 3-(4-Chlorophenyl)-5-[(2-chlorophenyl)acetylamino]-4-(4-pyrimidinyl)-isoxazole]
52.6 | Cc1cc(-c2noc(NC(=O)Cc3ccccc3C)c2-c2ccncn2)ccc1F [Example 257, 3-(3-Methyl-4-fluorophenyl)-5-[(2-methylphenyl)acetylamino]-4-(4-pyrimidinyl)isoxazole]
16.1 | O=C(Cc1c(F)cccc1Cl)Nc1onc(-c2ccc(F)cc2)c1-c1ccncn1 [Example 13, 5-[(2-Chloro-6-fluorophenyl)acetylamino]-3-(4-fluorophenyl)-4-(4-pyrimidinyl)isoxazole]
33.1 | COc1cccc(CC(=O)Nc2onc(-c3ccc(F)c(C)c3)c2-c2ccncn2)c1 [Example 253, 5-[(3-Methoxyphenyl)acetylamino]-3-(3-methyl-4-fluorophenyl)-4-(4-pyrimidinyl)isoxazole]
24.1 | COc1ccc(-c2noc(NC(=O)Cc3ccccc3Cl)c2-c2ccncn2)c(F)c1 [Example 174, 5-[(2-Chlorophenyl)acetylamino]-3-(2-fluoro-4-methoxyphenyl)-4-(4-pyrimidinyl)isoxazole]
39.8 | Cc1ccc(F)c(-c2noc(NC(=O)Cc3ccccc3)c2-c2ccncn2)c1 [Example 224, 3-(2-Fluoro-5-methylphenyl)-5-(phenylacetylamino)-4-(4-pyrimidinyl)isoxazole]
